# From paper PMC5095062, “The novel choline kinase inhibitor ICL-CCIC-0019 reprograms cellular metabolism and inhibits cancer cell growth” (Oncotarget, 2016)
# What was measured:
# [1] = tested on: HCT116 cells; experiment: DNA cell cycle analysis (flow cytometry, propidium iodide); format: cell-based, human
# Experimental: Supernatant and cells were harvested, washed and centrifuged. The cell pellet was resuspended it 1 mL ice-cold PBS and the suspension added to 9 mL 70% ethanol, while mixing gently. Cells were fixed for at least 2 hours at −20°C. Cells were centrifuged and rehydrated in 3 mL cold PBS for 15 minutes. Samples were stained in 500 μL buffer containing 100 mM Tris pH 7.4, 150 mM NaCl, 1 mM CaCl2, 0.5 mM MgCl2, 0.1% Triton X-100, 0.1 mg/ml RNase A, 50 μg/ml propidium iodide (all items from Sigma-Aldrich) at 37°C for 3 h protected from light. Data were acquired on a BD FACS Canto flow cytometer (BD Bioscience) and analyzed using FlowJo 7.6.4 software (Tree Star).
# [2] = tested on: HCT116 cells; experiment: Mitochondrial respiration (Seahorse XF24); format: cell-based, human; conditions: 10 μM
# Experimental: Extracellular acidification and oxygen consumption rates (ECAR and OCR) were measured in a XF24 extracellular flux analyzer (Seahorse XF24 Extra Cellular Flux Analyzer, North Billerica, MA, USA). Basic XF assay medium was prepared as previously described supplemented with glucose, and the pH adjusted to 7.4 at 37°C. Indicated final concentrations of compounds were obtained by injecting appropriate amounts of compounds dissolved in DMSO or water and diluted in XF assay medium into ports. […] Indicated data points were obtained after 3 min mixing and 2 min wait, followed by 3 min of data collection. Data were normalized to the basal values.
# [3] = biological target: SIK2 (Homo sapiens, UniProt Q9H0K1); experiment: Kinase selectivity screen; format: biochemical; conditions: SIK2, 10 μM
# Experimental: (§1) The substantially less demanding synthesis of ICL-CCIC-0019 compared with MN58B bears additional advantages. […] This consequently diminished intracellular PCho concentration, and importantly, the incorporation of [^3H]-choline into lipids (Figure 1D). […] To assess kinase specificity, ICL-CCIC-0019 was tested against a panel of 131 human kinases (Figure 1E and Supplementary Table S1). […] Inhibition greater than 20% was attained for insulin-like growth factor 1 (IGF-1R, 35 ± 7% inhibition), mitogen-activated protein kinase-activated protein kinase 3 (MAPKAP-K3, 33 ± 6%), extracellular signal regulated kinase 8 (ERK8, 31 ± 4%), ribosomal S6 kinase 1 (RSK1, 22 ± 6%), and v-erb-a erythroblastic leukemia viral oncogene homolog 4 (HER4, 21 ± 7%).
# [4] = biological target: PAK2 (Homo sapiens, UniProt Q13177); experiment: Kinase selectivity screen; format: biochemical; conditions: PAK2, 10 μM
# Experimental: as §1
# [5] = biological target: STK33 (Homo sapiens, UniProt Q9BYT3); experiment: Kinase selectivity screen; format: biochemical; conditions: STK33, 10 μM
# Chain of STK33 (Q9BYT3 whole entry): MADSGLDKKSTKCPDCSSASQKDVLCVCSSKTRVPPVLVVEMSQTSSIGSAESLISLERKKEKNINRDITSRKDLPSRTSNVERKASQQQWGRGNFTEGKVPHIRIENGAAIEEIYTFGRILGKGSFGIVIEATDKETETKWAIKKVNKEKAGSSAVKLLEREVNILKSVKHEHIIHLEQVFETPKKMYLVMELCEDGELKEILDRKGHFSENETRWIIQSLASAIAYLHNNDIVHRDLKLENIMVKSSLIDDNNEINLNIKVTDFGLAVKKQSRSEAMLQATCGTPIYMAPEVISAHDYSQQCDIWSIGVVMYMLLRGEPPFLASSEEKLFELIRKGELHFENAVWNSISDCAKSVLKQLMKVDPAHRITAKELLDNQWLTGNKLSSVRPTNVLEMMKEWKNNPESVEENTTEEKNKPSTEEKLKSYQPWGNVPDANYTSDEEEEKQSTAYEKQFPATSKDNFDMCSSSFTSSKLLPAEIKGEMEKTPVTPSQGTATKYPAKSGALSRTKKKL
# Experimental: as §1
# [6] = biological target: IR (Homo sapiens, UniProt P06213); experiment: Kinase selectivity screen; format: biochemical
# Chain of IR (P06213 28-1382): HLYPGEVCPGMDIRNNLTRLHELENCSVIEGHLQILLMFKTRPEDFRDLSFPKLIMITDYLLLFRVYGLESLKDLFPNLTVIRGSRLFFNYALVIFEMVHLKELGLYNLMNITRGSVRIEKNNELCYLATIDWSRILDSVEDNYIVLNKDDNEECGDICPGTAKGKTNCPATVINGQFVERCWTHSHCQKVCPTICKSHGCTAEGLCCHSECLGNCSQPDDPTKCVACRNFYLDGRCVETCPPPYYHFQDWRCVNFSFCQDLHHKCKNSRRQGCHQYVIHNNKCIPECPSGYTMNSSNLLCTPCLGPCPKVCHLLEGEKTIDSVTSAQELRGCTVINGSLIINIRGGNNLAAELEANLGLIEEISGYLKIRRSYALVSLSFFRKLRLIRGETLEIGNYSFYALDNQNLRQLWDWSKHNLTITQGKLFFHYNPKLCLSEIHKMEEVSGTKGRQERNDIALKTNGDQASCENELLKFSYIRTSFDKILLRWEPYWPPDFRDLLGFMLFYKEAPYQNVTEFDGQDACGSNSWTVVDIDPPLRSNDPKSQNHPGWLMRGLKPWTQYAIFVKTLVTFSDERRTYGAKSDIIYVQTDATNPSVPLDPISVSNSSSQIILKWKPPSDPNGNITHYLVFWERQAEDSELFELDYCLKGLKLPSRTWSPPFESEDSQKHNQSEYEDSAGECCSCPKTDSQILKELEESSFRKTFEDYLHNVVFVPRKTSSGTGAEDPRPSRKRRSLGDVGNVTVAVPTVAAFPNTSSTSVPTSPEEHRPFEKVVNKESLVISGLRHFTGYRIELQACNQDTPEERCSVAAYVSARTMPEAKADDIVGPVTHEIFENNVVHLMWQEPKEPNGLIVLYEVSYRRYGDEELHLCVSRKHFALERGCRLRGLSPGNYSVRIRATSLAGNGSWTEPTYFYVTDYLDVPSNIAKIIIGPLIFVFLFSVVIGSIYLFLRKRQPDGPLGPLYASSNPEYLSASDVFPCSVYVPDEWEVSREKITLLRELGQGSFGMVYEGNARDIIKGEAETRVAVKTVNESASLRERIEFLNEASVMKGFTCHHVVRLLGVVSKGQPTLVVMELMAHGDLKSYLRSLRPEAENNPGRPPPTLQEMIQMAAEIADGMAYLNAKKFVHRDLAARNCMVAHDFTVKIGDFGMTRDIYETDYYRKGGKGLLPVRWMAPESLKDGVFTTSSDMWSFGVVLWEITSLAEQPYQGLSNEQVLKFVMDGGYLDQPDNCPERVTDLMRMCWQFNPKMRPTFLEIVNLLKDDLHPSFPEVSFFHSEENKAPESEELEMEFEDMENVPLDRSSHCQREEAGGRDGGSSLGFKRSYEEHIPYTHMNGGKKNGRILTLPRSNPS
# Experimental: as §1
# [7] = biological target: BTK (Homo sapiens, UniProt Q06187); experiment: Kinase selectivity screen; format: biochemical
# Experimental: as §1
# [8] = biological target: CHK1 (Homo sapiens, UniProt O14757); experiment: Kinase selectivity screen; format: biochemical; conditions: CHK1, 10 μM
# Experimental: as §1
# [9] = biological target: NEK6 (Homo sapiens, UniProt Q9HC98); experiment: Kinase selectivity screen; format: biochemical; conditions: NEK6, 10 μM
# Chain of NEK6 (Q9HC98 whole entry): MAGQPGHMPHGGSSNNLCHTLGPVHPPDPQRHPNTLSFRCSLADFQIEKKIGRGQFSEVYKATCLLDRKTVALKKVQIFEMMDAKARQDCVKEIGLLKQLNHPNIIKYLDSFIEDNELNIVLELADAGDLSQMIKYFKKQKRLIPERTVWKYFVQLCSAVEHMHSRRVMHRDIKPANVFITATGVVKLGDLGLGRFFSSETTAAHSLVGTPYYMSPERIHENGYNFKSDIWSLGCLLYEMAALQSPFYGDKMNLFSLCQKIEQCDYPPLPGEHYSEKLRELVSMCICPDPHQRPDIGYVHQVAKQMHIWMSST
# Experimental: as §1
# [10] = biological target: PAK6 (Homo sapiens, UniProt Q9NQU5); experiment: Kinase selectivity screen; format: biochemical; conditions: PAK6, 10 μM
# Experimental: as §1
# [11] = biological target: ERK8 (Homo sapiens, UniProt Q8TD08); experiment: Kinase selectivity screen; format: biochemical; conditions: ERK8, 10 μM
# Chain of ERK8 (Q8TD08 whole entry): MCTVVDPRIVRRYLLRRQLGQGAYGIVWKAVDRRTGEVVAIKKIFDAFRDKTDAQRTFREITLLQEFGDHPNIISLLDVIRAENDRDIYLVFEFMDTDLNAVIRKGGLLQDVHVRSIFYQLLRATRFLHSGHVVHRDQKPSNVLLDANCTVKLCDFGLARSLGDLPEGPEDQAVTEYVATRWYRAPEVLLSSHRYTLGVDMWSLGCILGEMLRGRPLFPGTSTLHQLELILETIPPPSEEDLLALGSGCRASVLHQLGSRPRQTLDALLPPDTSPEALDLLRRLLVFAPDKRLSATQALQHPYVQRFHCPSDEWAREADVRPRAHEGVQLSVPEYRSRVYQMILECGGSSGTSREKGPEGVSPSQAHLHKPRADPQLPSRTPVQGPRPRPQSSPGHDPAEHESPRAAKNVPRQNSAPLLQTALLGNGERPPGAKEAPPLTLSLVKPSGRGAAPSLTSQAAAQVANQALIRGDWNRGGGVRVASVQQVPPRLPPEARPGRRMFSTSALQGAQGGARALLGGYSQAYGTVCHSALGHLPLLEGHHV
# Experimental: as §1
# [12] = biological target: SGK1 (Homo sapiens, UniProt O00141); experiment: Kinase selectivity screen; format: biochemical; conditions: SGK1, 10 μM
# Chain of SGK1 (O00141 whole entry): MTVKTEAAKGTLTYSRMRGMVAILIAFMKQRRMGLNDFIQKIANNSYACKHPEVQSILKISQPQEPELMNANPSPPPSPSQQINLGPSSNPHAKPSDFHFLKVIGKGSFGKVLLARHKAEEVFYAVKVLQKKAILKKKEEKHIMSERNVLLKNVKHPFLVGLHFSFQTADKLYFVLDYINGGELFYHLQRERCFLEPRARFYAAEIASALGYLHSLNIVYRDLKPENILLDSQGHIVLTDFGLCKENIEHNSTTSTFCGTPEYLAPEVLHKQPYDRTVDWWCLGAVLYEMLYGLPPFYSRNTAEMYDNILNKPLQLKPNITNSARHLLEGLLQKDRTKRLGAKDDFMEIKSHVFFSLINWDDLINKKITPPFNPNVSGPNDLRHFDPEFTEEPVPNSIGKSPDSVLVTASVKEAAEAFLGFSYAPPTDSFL
# Experimental: as §1
# [13] = biological target: Src (Homo sapiens, UniProt P12931); experiment: Kinase selectivity screen; format: biochemical
# Experimental: as §1
# [14] = biological target: TTBK1 (Homo sapiens, UniProt Q5TCY1); experiment: Kinase selectivity screen; format: biochemical; conditions: TTBK1, 10 μM
# Experimental: as §1
# [15] = biological target: IKKe (Homo sapiens, UniProt Q14164); experiment: Kinase selectivity screen; format: biochemical
# Experimental: as §1
# [16] = biological target: TBK1 (Homo sapiens, UniProt Q9UHD2); experiment: Kinase selectivity screen; format: biochemical; conditions: TBK1, 10 μM
# Experimental: as §1
# [17] = biological target: MARK4 (Homo sapiens, UniProt Q96L34); experiment: Kinase selectivity screen; format: biochemical; conditions: MARK4, 10 μM
# Experimental: as §1
# [18] = biological target: JAK2 (Homo sapiens, UniProt O60674); experiment: Kinase selectivity screen; format: biochemical; conditions: JAK2, 10 μM
# Experimental: as §1
# [19] = biological target: VEG-FR (Homo sapiens, UniProt P17948); experiment: Kinase selectivity screen; format: biochemical
# Experimental: as §1
# [20] = biological target: SYK (Homo sapiens, UniProt P43405); experiment: Kinase selectivity screen; format: biochemical
# Experimental: as §1
# [21] = biological target: MPSK1 (Homo sapiens, UniProt O75716); experiment: Kinase selectivity screen; format: biochemical; conditions: MPSK1, 10 μM
# Experimental: as §1
# [22] = biological target: TTK (Homo sapiens, UniProt P33981); experiment: Kinase selectivity screen; format: biochemical
# Experimental: as §1
# [23] = biological target: HIPK1 (Homo sapiens, UniProt Q86Z02); experiment: Kinase selectivity screen; format: biochemical; conditions: HIPK1, 10 μM
# Experimental: as §1
# [24] = biological target: IGF-1R (Homo sapiens, UniProt P08069); experiment: Kinase selectivity screen; format: biochemical
# Chain of IGF-1R (P08069 31-1367): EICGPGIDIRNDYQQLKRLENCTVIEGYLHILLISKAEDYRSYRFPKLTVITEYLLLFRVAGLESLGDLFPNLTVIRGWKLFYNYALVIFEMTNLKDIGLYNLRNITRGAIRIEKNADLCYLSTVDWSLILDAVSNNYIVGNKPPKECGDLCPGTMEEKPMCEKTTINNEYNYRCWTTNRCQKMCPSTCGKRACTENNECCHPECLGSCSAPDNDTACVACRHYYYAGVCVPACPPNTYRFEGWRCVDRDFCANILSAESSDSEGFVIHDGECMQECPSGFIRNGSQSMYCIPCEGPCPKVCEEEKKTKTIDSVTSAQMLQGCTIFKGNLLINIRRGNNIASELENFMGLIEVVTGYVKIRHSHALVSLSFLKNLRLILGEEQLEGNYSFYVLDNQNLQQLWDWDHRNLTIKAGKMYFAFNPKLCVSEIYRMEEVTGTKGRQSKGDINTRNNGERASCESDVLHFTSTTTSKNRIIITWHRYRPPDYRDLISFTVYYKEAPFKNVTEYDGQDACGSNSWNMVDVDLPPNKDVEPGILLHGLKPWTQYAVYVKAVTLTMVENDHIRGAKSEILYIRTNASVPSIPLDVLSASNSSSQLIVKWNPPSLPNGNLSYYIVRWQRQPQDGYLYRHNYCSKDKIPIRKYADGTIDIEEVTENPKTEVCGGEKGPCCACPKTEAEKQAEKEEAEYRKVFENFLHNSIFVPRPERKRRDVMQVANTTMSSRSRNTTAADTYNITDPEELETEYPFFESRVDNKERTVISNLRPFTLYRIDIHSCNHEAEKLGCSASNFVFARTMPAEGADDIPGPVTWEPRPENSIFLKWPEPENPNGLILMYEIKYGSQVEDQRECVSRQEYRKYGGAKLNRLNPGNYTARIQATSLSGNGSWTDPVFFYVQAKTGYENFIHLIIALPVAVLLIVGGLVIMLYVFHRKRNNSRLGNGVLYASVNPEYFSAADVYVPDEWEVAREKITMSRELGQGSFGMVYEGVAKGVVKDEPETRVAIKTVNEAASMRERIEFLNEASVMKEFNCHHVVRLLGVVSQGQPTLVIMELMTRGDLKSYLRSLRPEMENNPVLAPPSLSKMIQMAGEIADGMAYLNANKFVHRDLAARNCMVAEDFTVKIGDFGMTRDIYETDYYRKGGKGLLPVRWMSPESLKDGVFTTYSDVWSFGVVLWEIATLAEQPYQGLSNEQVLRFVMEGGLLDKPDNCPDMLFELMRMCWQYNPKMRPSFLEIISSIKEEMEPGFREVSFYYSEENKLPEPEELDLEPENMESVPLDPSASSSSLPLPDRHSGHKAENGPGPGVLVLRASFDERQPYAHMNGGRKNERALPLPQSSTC
# Experimental: as §1
# [25] = biological target: p38g MAPK (Homo sapiens, UniProt P53778); experiment: Kinase selectivity screen; format: biochemical
# Experimental: as §1
# [26] = biological target: FGF-R1 (Homo sapiens, UniProt P11362); experiment: Kinase selectivity screen; format: biochemical; conditions: FGF-R1, 10 μM
# Experimental: as §1
# [27] = biological target: IRAK4 (Homo sapiens, UniProt Q9NWZ3); experiment: Kinase selectivity screen; format: biochemical; conditions: IRAK4, 10 μM
# Chain of IRAK4 (Q9NWZ3 whole entry): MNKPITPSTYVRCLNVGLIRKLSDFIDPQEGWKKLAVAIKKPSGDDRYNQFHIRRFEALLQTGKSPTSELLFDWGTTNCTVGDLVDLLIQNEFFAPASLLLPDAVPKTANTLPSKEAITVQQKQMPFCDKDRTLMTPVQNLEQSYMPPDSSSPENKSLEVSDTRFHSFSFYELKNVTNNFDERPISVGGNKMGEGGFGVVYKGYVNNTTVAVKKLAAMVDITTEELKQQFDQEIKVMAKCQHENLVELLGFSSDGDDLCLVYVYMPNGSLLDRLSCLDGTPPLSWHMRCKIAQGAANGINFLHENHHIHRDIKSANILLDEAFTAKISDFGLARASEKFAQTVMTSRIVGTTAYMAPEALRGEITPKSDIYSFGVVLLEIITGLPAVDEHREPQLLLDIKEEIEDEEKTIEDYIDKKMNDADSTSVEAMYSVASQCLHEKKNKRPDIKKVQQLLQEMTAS
# Experimental: as §1
# [28] = biological target: PKBb (Homo sapiens, UniProt P31751); experiment: Kinase selectivity screen; format: biochemical
# Experimental: as §1
# [29] = biological target: PKBa (Homo sapiens, UniProt P31749); experiment: Kinase selectivity screen; format: biochemical
# Experimental: as §1
smiles,measurement,setting,value
CN(C)c1cc[n+](CCCCCCCCCCCC[n+]2ccc(N(C)C)cc2)cc1 [ICL-CCIC-0019],increase of cells in G1 phase,"[1]; 10 μM, 24 h",2 fold
same,increase of sub-G1 population,[1]; 48 h,3.7 fold
same,mitochondrial respiration immediately after adding inhibitor (acute effect),[2],decreased mitochondrial respiration
same,remaining activity at 10 µM,[3],109%
same,remaining activity at 10 µM,[4],107%
same,remaining activity at 10 µM,[5],99%
same,remaining activity at 10 µM,[6],103%
same,remaining activity at 10 µM,[7],131%
same,remaining activity at 10 µM,[8],97%
same,remaining activity at 10 µM,[9],86%
same,remaining activity at 10 µM,[10],107%
same,inhibition at 10 µM,[11],31 ± 4%
same,remaining activity at 10 µM,[11],69%
same,remaining activity at 10 µM,[12],94%
same,remaining activity at 10 µM,[13],105%
same,remaining activity at 10 µM,[14],97%
same,remaining activity at 10 µM,[15],123%
same,remaining activity at 10 µM,[16],108%
same,remaining activity at 10 µM,[17],95%
same,remaining activity at 10 µM,[18],90%
same,remaining activity at 10 µM,[19],80%
same,remaining activity at 10 µM,[20],92%
same,remaining activity at 10 µM,[21],105%
same,remaining activity at 10 µM,[22],101%
same,remaining activity at 10 µM,[23],106%
same,inhibition at 10 µM,[24],35 ± 7%
same,remaining activity at 10 µM,[24],65%
same,remaining activity at 10 µM,[25],99%
same,remaining activity at 10 µM,[26],92%
same,remaining activity at 10 µM,[27],83%
same,remaining activity at 10 µM,[28],93%
same,remaining activity at 10 µM,[29],101%
